# Like-named read-outs stand apart in the source and are kept apart here.
# Columns and labels:
# Assay in all cases: Cysteine liganding, probe competition
# Assay type in all cases: binding
# UniProt Q3KNV8 = biological target: T1, UniProt Q3KNV8 (Homo sapiens, UniProt Q3KNV8)
# T1 construct: Cells were resuspended in cold PBS on ice and sonicated with a probe sonicator to achieve lysis; endogenous in cells
# T1 sequence (Q3KNV8 1-242): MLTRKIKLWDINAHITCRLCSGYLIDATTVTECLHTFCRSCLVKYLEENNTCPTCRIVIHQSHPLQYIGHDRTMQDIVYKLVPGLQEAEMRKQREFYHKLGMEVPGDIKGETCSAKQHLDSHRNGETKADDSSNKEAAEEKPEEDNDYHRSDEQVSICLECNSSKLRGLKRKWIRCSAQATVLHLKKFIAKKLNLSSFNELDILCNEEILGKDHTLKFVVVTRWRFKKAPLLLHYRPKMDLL
# From the text: (§1) The following 96-well sample prep protocol was used for sample preparation.
# UniProt Q68DV7 = biological target: T2, UniProt Q68DV7 (Homo sapiens, UniProt Q68DV7)
# T2 construct: 200 μL of lysate containing 5 mg/ml proteome was treated with 2 μL of 100× compound stock; endogenous in cells
# T2 sequence (Q68DV7 24-783): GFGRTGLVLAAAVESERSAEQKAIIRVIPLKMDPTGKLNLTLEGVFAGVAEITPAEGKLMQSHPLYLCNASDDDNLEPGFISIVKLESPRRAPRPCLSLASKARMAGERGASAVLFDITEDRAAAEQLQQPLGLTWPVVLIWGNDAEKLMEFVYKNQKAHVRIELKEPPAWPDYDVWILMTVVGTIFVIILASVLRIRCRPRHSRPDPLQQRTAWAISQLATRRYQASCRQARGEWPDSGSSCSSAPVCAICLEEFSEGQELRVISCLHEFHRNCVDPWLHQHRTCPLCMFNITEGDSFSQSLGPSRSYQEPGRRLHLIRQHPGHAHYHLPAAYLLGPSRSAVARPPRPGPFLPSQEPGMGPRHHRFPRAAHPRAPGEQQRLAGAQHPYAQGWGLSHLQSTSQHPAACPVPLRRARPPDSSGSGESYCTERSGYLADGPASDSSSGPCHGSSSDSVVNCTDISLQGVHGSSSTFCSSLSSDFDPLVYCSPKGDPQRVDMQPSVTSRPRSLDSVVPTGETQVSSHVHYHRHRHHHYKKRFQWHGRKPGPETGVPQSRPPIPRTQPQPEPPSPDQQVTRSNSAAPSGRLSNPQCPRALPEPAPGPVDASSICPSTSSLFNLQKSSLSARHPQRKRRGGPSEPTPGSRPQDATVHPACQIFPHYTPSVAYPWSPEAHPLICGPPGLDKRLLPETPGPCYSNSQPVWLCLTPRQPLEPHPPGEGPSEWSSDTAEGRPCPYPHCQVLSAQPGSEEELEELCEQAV
# From the text: as §1
# UniProt Q6ZN04 = biological target: T3, UniProt Q6ZN04 (Homo sapiens, UniProt Q6ZN04); details: for inhibition at 500 µM: read-out: percent inhibition
# T3 construct: Cells were resuspended in cold PBS on ice and sonicated with a probe sonicator to achieve lysis; endogenous in cells
# T3 sequence (Q6ZN04 1-569): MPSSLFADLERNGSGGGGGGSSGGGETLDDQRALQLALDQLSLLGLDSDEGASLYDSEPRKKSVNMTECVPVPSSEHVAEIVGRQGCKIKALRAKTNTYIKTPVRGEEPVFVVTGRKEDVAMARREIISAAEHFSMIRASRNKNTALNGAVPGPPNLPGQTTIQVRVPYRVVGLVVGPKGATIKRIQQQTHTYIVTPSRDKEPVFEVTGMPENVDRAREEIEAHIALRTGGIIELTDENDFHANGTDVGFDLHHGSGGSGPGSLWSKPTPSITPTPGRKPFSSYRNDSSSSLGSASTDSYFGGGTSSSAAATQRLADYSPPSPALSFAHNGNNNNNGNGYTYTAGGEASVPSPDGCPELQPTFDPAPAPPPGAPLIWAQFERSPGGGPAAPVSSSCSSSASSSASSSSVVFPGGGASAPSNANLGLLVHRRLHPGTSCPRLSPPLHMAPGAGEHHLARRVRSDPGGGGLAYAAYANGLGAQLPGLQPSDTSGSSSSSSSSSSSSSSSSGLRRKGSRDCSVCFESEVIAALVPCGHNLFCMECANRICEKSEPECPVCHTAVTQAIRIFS
# From the text: as §1
# UniProt Q8WV44 = biological target: T4, UniProt Q8WV44 (Homo sapiens, UniProt Q8WV44)
# T4 construct: 200 μL of lysate containing 5 mg/ml proteome was treated with 2 μL of 100× compound stock; endogenous in cells
# T4 sequence (Q8WV44 1-630): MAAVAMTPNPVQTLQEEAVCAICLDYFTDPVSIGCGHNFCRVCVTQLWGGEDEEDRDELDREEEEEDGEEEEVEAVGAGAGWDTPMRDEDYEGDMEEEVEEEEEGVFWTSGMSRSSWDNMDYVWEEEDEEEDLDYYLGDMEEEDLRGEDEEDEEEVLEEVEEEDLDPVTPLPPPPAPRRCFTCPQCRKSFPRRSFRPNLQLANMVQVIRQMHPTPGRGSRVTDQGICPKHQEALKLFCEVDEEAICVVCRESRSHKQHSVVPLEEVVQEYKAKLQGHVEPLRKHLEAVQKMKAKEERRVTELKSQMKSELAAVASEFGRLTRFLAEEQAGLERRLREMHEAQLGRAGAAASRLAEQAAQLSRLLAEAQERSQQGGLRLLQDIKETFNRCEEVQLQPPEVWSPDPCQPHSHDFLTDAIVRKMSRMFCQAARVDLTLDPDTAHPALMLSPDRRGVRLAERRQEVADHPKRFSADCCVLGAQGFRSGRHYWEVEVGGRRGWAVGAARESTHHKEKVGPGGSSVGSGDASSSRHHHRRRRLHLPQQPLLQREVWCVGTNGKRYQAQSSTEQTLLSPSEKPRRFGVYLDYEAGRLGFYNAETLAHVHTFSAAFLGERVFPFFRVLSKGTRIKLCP
# From the text: as §1
# UniProt Q9BY78 = biological target: T5, UniProt Q9BY78 (Homo sapiens, UniProt Q9BY78); details: for inhibition at 500 µM: read-out: percent_inhibition
# T5 construct: 200 μL of lysate containing 5 mg/ml proteome was treated with 2 μL of 100× compound stock; endogenous in cells
# T5 sequence (Q9BY78 1-433): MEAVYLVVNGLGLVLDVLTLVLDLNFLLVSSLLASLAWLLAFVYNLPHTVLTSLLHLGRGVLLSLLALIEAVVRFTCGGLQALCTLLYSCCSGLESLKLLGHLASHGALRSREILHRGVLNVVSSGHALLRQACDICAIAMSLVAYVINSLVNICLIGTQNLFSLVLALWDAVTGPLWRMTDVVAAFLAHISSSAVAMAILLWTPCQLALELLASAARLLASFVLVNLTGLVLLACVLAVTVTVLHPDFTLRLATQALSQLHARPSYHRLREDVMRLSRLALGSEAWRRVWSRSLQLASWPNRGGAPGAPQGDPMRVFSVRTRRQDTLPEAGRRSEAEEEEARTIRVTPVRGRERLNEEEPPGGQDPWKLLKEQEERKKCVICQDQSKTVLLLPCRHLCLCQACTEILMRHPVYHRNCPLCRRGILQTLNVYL
# From the text: as §1
# [1] = 500 uM, read-out: KB05_500 uM_percent_inhibition
# [2] = 500 uM, read-out: percent_inhibition
# [3] = 100 uM, read-out: KB02_100 uM_percent_inhibition
"inhibition at 100 µM (UniProt Q3KNV8; 100 uM, read-out: KB05_100 uM_percent_inhibition)",KB05_500 uM_percent_inhibition (UniProt Q3KNV8; 500 uM),inhibition at 500 µM (UniProt Q3KNV8; [1]),percent_inhibition (UniProt Q68DV7; 500 uM),inhibition at 500 µM (UniProt Q8WV44; [1]),Structure (SMILES),inhibition at 500 µM (UniProt Q68DV7; [2]),inhibition at 500 µM (UniProt Q6ZN04),inhibition at 500 µM (UniProt Q9BY78),KB03_100 uM_percent_inhibition (UniProt Q3KNV8; 100 uM),percent_inhibition (UniProt Q68DV7; 100 uM),percent inhibition (UniProt Q6ZN04; 500 uM),KB03_100 uM_percent_inhibition (UniProt Q8WV44; 100 uM),percent_inhibition (UniProt Q9BY78; 500 uM),inhibition at 100 µM (UniProt Q3KNV8; [3]),KB02_500 uM_percent_inhibition (UniProt Q3KNV8; 500 uM),"inhibition at 500 µM (UniProt Q3KNV8; 500 uM, read-out: KB02_500 uM_percent_inhibition)","inhibition at 100 µM (UniProt Q68DV7; 100 uM, read-out: percent_inhibition)",inhibition at 100 µM (UniProt Q8WV44; [3])
14%,50%,58%,40%,50%,C=CC(=O)N(c1ccccc1)c1ccc(Br)cc1 [KB05],42%,51%,30%,–,–,–,–,–,–,–,–,–,–
–,–,–,–,–,O=C(CCl)Nc1cc(C(F)(F)F)cc(C(F)(F)F)c1 [KBO3],–,–,–,6%,7%,28%,31%,54%,–,–,–,–,–
–,–,–,–,–,COc1ccc2c(c1)CCCN2C(=O)CCl [KB02],41%,51%,31%,–,21%,–,–,–,19%,57%,52%,13%,15%
